Counter-ions that a name gives are not always drawn.
These molecules were tested against RIPK1 (recombinant GST-RIPK1 kinase domain, residues 1-327) (Homo sapiens (Human), UniProt Q13546) (assay: RIPK1-ADP-Glo Enzymatic Assay). Details: ADP-Glo; 25 nM GST-RIPK1, 300 μM ATP; assay lower limit ~25 nM; read-out: RIPK1 V0 Ec50.
Assay type: biochemical
Description: RIPK1-ADP-Glo Enzymatic Assay
The enzymatic activity of RIPK1 is measured using an assay derived from ADP-Glo kit (TMPromega), which provides a luminescent-based ADP detection system. Specifically, the ADP generated by RIPK1 kinase is proportionally detected as luminescent signals in a homogenous fashion. In this context, the assessment of the inhibitory effect of small molecules (EC50) is measured by the effectiveness of the compounds to inhibit the ATP to ADP conversion by RIPK1.
In this assay, the potency (EC50) of each compound was determined from a ten-point (1:3 serial dilution; top compound concentration of 100000 nM) titration curve using the following outlined procedure. The assay bottom or lower limit of confidence is ˜25 nM. To each well of a white ProxiPlus 384 well-plate, 30 nL of compound (1% DMSO in final assay volume of 3 μL) was dispensed, followed by the addition of 2 μL of 1×assay buffer (25 mM Hepes 7.3, 20 mM MgCl2, 50 mM NaCl, 1 mM DTT, 0.005% Tween20, and 0.02% BSA) containing 37.5 nM of GST-RIPK1 (recombinant GST-RIPK1 kinase domain (residues 1-327) enzyme produced from baculovirus-transfected Sf21 cells: MW=62 kDa). Plates were placed in an ambient temperature humidified chamber for a 30-minute pre-incubation with compound. Subsequently, each reaction was initiated by the addition of 1 μL 1×assay buffer containing 900 μM ATP and […] dephosphorylated-MBP substrate. The final reaction in each well of 3 μL consists of 25 nM of GST-RIPK1, 300 μM ATP, and 3 μM dephosphorylated-MBP. Kinase reactions were allowed to proceed for 150 minutes prior to adding ADP-Glo reagents per Promega's outlined kit protocol. Dose-response curves were generated by plotting percent effect (% product conversion; Y-axis) vs. Log10 compound concentrations (X-axis). EC50 values were calculated using a non-linear regression, four-parameters sigmoidal dose-response model.

RIPK1 (recombinant GST-RIPK1 kinase domain, residues 1-327), sequence (Q13546 1-327): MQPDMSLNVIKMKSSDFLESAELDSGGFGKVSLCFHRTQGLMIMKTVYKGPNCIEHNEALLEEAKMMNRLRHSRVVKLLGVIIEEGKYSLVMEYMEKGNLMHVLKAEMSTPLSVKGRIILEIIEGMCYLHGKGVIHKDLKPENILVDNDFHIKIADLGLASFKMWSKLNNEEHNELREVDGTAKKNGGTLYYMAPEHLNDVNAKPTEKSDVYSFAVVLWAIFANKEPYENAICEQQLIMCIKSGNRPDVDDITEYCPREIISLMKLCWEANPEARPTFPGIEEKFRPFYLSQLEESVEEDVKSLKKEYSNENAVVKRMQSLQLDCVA

| SMILES | EC50 [nM] |
| --- | --- |
| O=C1N2[C@@H](CC[C@H]2c2ccccc2)OC12CCN(c1cccc3ncnn13)CC2F (single isomer, unassigned) [Example 13.17, (3[R or S], 4[S or R], 5′S,7a′R)-1-([1,2,4]triazolo[1,5-a]pyridin-5-yl)-3-fluoro-5′-phenyltetrahydro-3′H-spiro[piperidine-4,2′-pyrrolo[2,1-b]oxazol]-3′-one, TFA salt] | < 25 |
| N#Cc1ccc(F)c(C(=O)N2CCC3(CC2)O[C@@H]2CC[C@@H](c4ccccc4)N2C3=O)c1 [Example 6.148] | < 25 |
| O=C(c1ccsc1-n1nccn1)N1CCC2(CC1)O[C@@H]1CC[C@@H](c3cc(F)cc(F)c3)N1C2=O [Example 6.68, (5′S,7a′R)-5′-(3,5-difluorophenyl)-1-[2-(2H-1,2,3-triazol-2-yl)thiophene-3-carbonyl]tetrahydro-3′H-spiro[piperidine-4,2′-pyrrolo[2,1-b] [1,3]oxazol]-3′-one] | 212 |
| C[C@@]12CC[C@@H](c3ccccc3)N1C(=O)C1(CCN(C(=O)c3ccccc3)CC1)O2 [Example 6.98, (5′S,7a′R)-1-(benzene-carbonyl)-7a′-methyl-5′-phenyltetrahydro-3′H-spiro[piperidine-4,2′-pyrrolo[2,1-b] [1,3]oxazol]-3′-one] | 523 |
| CC1CN(c2cccc3ncnn23)CCC12O[C@@H]1CC[C@@H](c3cc(F)cc(F)c3)N1C2=O (stereo partly drawn) [Example 4.266, (5′S,7a′R)-5′-(3,5-difluorophenyl)-3-methyl-1-([1,2,4]triazolo[1,5-a]pyridin-5-yl)tetrahydro-3′H-spiro[piperidine-4,2′-pyrrolo[2,1-b] [1,3]oxazol]-3′-one] | < 25 |
| O=C1N2[C@@H](CC[C@H]2c2cc(F)cc(F)c2)OC12CCN(c1nccn3cccc13)CC2 [Example 13.10, (5′S,7a′R)-5′-(3,5-difluorophenyl)-1-(pyrrolo[1,2-a]pyrazin-1-yl)tetrahydro-3′H-spiro[piperidine-4,2′-pyrrolo[2,1-b]oxazol]-3′-one] | 36.8 |
| N#Cc1ccc(N2CCC3(CC2)O[C@@H]2CC[C@@H](c4ccccc4)N2C3=O)n2ncc(C#N)c12 [Example 4.178, 7-[(5′S,7a′R)-3′-oxo-5′-phenyltetrahydro-1H,3′H-spiro[piperidine-4,2′-pyrrolo[2,1-b] [1,3]oxazol]-1-yl]pyrazolo[1,5-a] pyridine-3,4-dicarbonitrile] | < 25 |
| N#Cc1cc(F)cc([C@@H]2CC[C@H]3OC4(CCN(c5ccnc6c(F)cnn56)CC4)C(=O)N32)c1 [Example 4.121, 3-fluoro-5-[(5′S,7a′R)-1-(3-fluoropyrazolo[1,5-a]pyrimidin-7-yl)-3′-oxotetrahydro-3′H-spiro[piperidine-4,2′-pyrrolo[2,1-b] [1,3]oxazol]-5′-yl]benzonitrile] | < 25 |
| O=C1N2[C@@H](CC[C@H]2c2ccccc2)OC12CCN(c1cc(C3CC3)ccn1)CC2 [Example 11.22, (5′S,7a′R)-1-(4-cyclopropylpyridin-2-yl)-5′-phenyltetrahydro-3′H-spiro[piperidine-4,2′-pyrrolo[2,1-b][1,3]oxazol]-3′-one] | 761 |
| O=C(c1cocn1)N1CCC2(CC1)O[C@@H]1CC[C@@H](c3cc(F)cc(F)c3)N1C2=O [Example 5.54, (5′S,7a′R)-5′-(3,5-difluoro-phenyl)-1-(oxazole-4-car-bonyl)tetrahydro-3′H-spiro [piperidine-4,2′-pyrrolo-[2,1-b]oxazol]-3′-one] | 27.2 |
| Cc1nc(C(=O)N2CCC3(CC2)O[C@@H]2CC[C@@H](c4cc(F)cc(F)c4)N2C3=O)no1 [Example 6.20, (5′S,7a′R)-5′-(3,5-difluorophenyl)-1-(5-methyl-1,2,4-oxadi-azole-3-carbonyl)-tetrahydro-3′H-spiro [piperidine-4,2′-pyrrolo[2,1-b][1,3]oxazol]-3′-one] | 136 |
| O=C(c1ccccc1)N1CCC2(CC1)O[C@@H]1CC[C@@H](c3cc(F)cc(F)c3)N1C2=O [Example 1.1, (5′S,7a′R)-1-Benzoyl-5′-(3,5-difluorophenyl)tetrahydro-3′H-spiro[piperidine-4,2′-pyrrolo[2,1-b]oxazol]-3′-one] | < 25 |
| O=C1N2[C@@H](CC[C@H]2c2cc(F)cc(F)c2)OC12CCN(c1nccn3ccnc13)CC2 [Example 13.15, (5′S,7a′R)-5′-(3,5-difluorophenyl)-1-(imidazo[1,2-a]pyrazin-8-yl)tetrahydro-3′H-spiro[piperidine-4,2′-pyrrolo[2,1-b]oxazol]-3′-one, TFA salt] | 188 |
| CC1CC2(CCN1C(=O)c1ccccc1)O[C@@H]1CC[C@@H](c3cc(F)cc(F)c3)N1C2=O (stereo partly drawn) [Example 6.107, (4R,5′S,7a′R)-1-(benzenecarbonyl)-5′-(3,5-difluorophenyl)-2-methyltetrahydro-3′H-spiro[piperidine-4,2′-pyrrolo[2,1-b] [1,3]oxazol]-3′-one] | < 25 |
| Cc1ccncc1C(=O)N1CCC2(CC1)O[C@@H]1CC[C@@H](c3cc(F)cc(F)c3)N1C2=O [Example 6.51, (5′S,7a′R)-5′-(3,5-difluorophenyl)-1-(4-methylpyridine-3-carbonyl)tetrahydro-3′H-spiro[piperidine-4,2′-pyrrolo[2,1-b] [1,3]oxazol]-3′-one] | 600 |
| O=C(c1cocn1)N1CCC2(CC1)O[C@@H]1CC[C@@H](c3cc(F)cc(F)c3)N1C2=O [Example 5.30, (5′S,7a′R)-5′-(3,5-difluoro-phenyl)-1-(1-oxazole-4-carbonyl)tetrahydro-3′H-spiro[piperidine-4,2′-pyrrolo[2,1-b]oxazol]-3′-one] | 28.4 |
| O=C1N2[C@@H](CC[C@H]2c2ccccc2F)OC12CN(c1ccnc3ccnn13)C2 [Example 4.108, (5′S,7a′R)-5′-(2-fluorophenyl)-1-(pyrazolo[1,5-a]pyrimidin-7-yl)tetrahydro-3′H-spiro[azetidine-3,2′-pyrrolo[2,1-b]oxazol]-3′-one] | 26.9 |

Further lines, results first:

| EC50 [nM] | SMILES |
| --- | --- |
| 40.3 | Cc1ccccc1[C@@H]1CC[C@H]2OC3(CCN(c4ccnc5c(F)cnn45)CC3)C(=O)N21 [Example 4.255, (5′S,7a′R)-1-(3-fluoropyrazolo[1,5-a]pyrimidin-7-yl)-5′-(2-methylphenyl)tetrahydro-3′H-spiro[piperidine-4,2′-pyrrolo[2,1-b] [1,3]oxazol]-3′-one] |
| 82.4 | O=C(c1cc(C2CC2)on1)N1CCC2(CC1)O[C@@H]1CC[C@@H](c3cc(F)cc(F)c3)N1C2=O [Example 6.25, (5′S,7a′R)-1-(5-cyclo-propyl-1,2-oxazole-3-carbonyl)-5′-(3,5-difluorophenyl)tetra-hydro-3′H-spiro[piperi-dine-4,2′-pyrrolo[2,1-b][1,3]oxazol]-3′-one] |
| 32.3 | O=C(c1ncoc1C1CC1)N1CCC2(CC1)O[C@@H]1CC[C@@H](c3cc(F)cc(F)c3)N1C2=O [Example 6.24, (5′S,7a′R)-1-(5-cyclo-propyl-1,3-oxazole-4-carbonyl)-5′-(3,5-difluorophenyl)tetra-hydro-3′H-spiro[piperi-dine-4,2′-pyrrolo[2,1-b][1,3]oxazol]-3′-one] |
| < 25 | O=C(c1ccccc1)N1CCC2(CC1)O[C@@H]1CC[C@@H](c3ccc(F)cc3F)N1C2=O [Example 17.14, (5′S,7a′R)-1-(benzenecarbonyl)-5′-(2,4-difluorophenyl)tetrahydro-3′H-spiro[piperidine-4,2′-pyrrolo[2,1-b][1,3]oxazol]-3′-one] |
| 75.1 | Cc1ccc(C)c(C(=O)N2CCC3(CC2)O[C@@H]2CC[C@@H](c4ccccc4)N2C3=O)c1 [Example 6.142, (5′S,7a′R)-1-(2,5-dimethylbenzene-1-carbonyl)-5′-phenyl-tetrahydro-3′H-spiro [piperidine-4,2′-pyrrolo[2,1-b][1,3]oxazol]-3′-one] |
| 202 | CC1CC2(CCN1C(=O)c1ccccc1)O[C@@H]1CC[C@@H](c3cc(F)cc(F)c3)N1C2=O (stereo partly drawn) [Example 6.106, (4R,5′S,7a′R)-1-(benzenecarbonyl)-5′-(3,5-difluorophenyl)-2-methyltetrahydro-3′H-spiro[piperidine-4,2′-pyrrolo[2,1-b] [1,3]oxazol]-3′-one] |
| < 25 | N#Cc1ccc(N2CCC3(CC2)O[C@@H]2CC[C@@H](c4cc(F)cc(F)c4)N2C3=O)cc1 [Example 4.68, 4-[(5′S,7a′R)-5′-(3,5-difluorophenyl)-3′-oxotetrahydro-1H,3′H-spiro[piperidine-4,2′-pyrrolo[2,1-b] [1,3]oxazol]-1-yl]benzonitrile] |
| 253 | Cc1cc(N2CCC3(CC2)O[C@@H]2CC[C@@H](c4ccccc4)N2C3=O)cs1 [Example 11.10, (5′S,7a′R)-1-(5-methylthiophen-3-yl)-5′-phenyltetrahydro-3′H-spiro[piperidine-4,2′-pyrrolo[2,1-b][1,3]oxazol]-3′-one] |
